# Reference: article PMC8032764 (Scientific Reports, 2021)
# How the values were obtained:
# healthy subjects = assay: Safety in healthy volunteers in the PET and EEG studies; format: in vivo, human
# NMDA (PCP) = assay: Cerep binding; details: 10 μM; [3H]TCP; rat cerebral cortex
# Melanocortin MC4 = test system: T1, Melanocortin MC4; assay: Cerep binding; design: species or system human; details: 10 μM; [125I]NDP-α-MSH; hum. recomb. (CHO)
# T1 construct: purchased Eurofins Cerep
# healthy male subjects = assay: Study BP25129 single-ascending dose, safety EEG; format: in vivo, human
# Protocol: CLINICAL INFORMATION: Safety EEG data from Phase I studies in healthy volunteers
# 1) Study BP25129 Single-Ascending Dose (SAD) in Healthy Volunteers
# Single doses of between 1.5 mg and 1250 mg were administered to groups of eight healthy male subjects (age range 18–44 years) per dose level (6 received active drug, two received placebo). All nine planned cohorts in the Part 1 SAD study were completed, and all subjects completed dosing as planned.
# Food Effect (FE) Cohort: Eight subjects were enrolled, all received active drug as planned on two separate occasions, with food condition (Fed or Fasted) on each occasion determined in a randomized manner. All subjects enrolled in the FE portion of Part 1 completed the study.
# EEG assessments were made in Cohorts 6, 8, 9 and FE Cohort only:
# • Cohort 6: 160 mg (n dosed: 6)
# • Cohort 8: 660 mg (n dosed: 6)
# • Cohort 9: 1250 mg (n dosed: 6)
# • Food effect Cohort: 660 mg ([…]) […]
# On the day of dosing, an EEG in the resting, awake state was recorded starting about 1 hour prior to dosing and ending approximately 7 h after dosing. EEG results were recorded either as normal, normal variant or abnormal variant. If an abnormal variant measurement was recorded, then the Investigator could continue recordings as appropriate until a return to […]
# participants had several EEGs and several participants had sleep assessments with EEG that were also evaluated: […]
# [1] = Pharmacokinetics, single intravenous dosing; format: in vivo; details: Wistar, rat, plasma, 4.3 mg/kg i.v., 2 male
# Dopamine D2S = test system: T2, Dopamine D2S; assay: Cerep binding; design: species or system human; details: 10 μM; [3H]spiperone; hum. recomb. (HEK-293)
# T2 construct: host or cells: HEK-293
# Purinergic P2Y = assay: Cerep binding; details: 10 μM; [35S]dATPαS; rat cerebral cortex
# Serotonin 5-HT7 = test system: T3, Serotonin 5-HT7; assay: Cerep binding; design: species or system human; details: 10 μM; [3H]LSD; hum. recomb. (CHO)
# T3 construct: purchased Eurofins Cerep
# Bombesin (non-selective) = assay: Cerep binding; details: 10 μM; [125I][Tyr4]bombesin; rat cerebral cortex
# Angiotensin AT2 = test system: T4, Angiotensin AT2; assay: Cerep binding; design: species or system human; details: 10 μM; [125I]CGP 42112A; hum. recomb. (CHO)
# T4 construct: purchased Eurofins Cerep
smiles,measurement,setting,value
Cc1onc(-c2ccc(F)cc2)c1COc1ccc(C(=O)N2CCS(=O)(=O)CC2)cn1 [basmisanil],safety and tolerability,healthy subjects; PET and EEG studies,safe and well tolerated
same,adverse events,healthy subjects; any cohort,no severe adverse events
same,% Inhibition,NMDA (PCP),14%
same,% Inhibition,Melanocortin MC4,9%
same,tolerability,healthy male subjects; single doses 1.5 mg to 1250 mg,well tolerated
same,EEG assessments,"healthy male subjects; single doses of 160 mg, 660 mg and 1250 mg",did not reveal any findings of clinical
same,half-life,[1],1.2 h
same,clearance,[1]; read-out: Total CL,54 mL/min/kg
same,Vd,[1]; read-out: Vss,2.9 L/kg
same,% Inhibition,Dopamine D2S,9%
same,% Inhibition,Purinergic P2Y,9%
same,% Inhibition,Serotonin 5-HT7,13%
same,% Inhibition,Bombesin (non-selective),-24%
same,% Inhibition,Angiotensin AT2,-3%
